The values that follow come from US20050256177A1, “Phenyl derivatives for the treatment of abnormal cell growth” (Pfizer Inc, priority 2004, published 2005).

Series [1] is described as follows: Metabolite profiling after single oral dose of [14C]-labelled parent drug in healthy male subjects. It is filed as in vivo, human. The note with it: for presence in HPLC-radiochromatogram of human fecal metabolites: human feces; for presence in HPLC-radiochromatogram of human fecal metabolites / presence in HPLC-radiochromatogram of circulating metabolites / presence in HPLC-radiochromatogram of human urinary metabolites: single 100 mg oral dose of labelled compound; for presence in HPLC-radiochromatogram of circulating metabolites: human plasma; for presence in HPLC-radiochromatogram of human urinary metabolites / matrices in which the metabolite was detected (humans): human urine; for matrices in which the metabolite was detected (humans): feces, plasma. The method, then:
Four normal healthy male subjects between the ages of 26 and 55 years participated in the study. The subjects entered the Clinical Research Facility 12 hours before dosing, and remained there for up to 384 hours after dosing under continuous medical observation. All subjects had fasted at least 8 hours and were given a single 100 mg oral dose of the labeled compound (˜93 μCi/subject). The dose was administered in an open fashion in the morning. A standard meal was provided 4 hours later. The dosing formulation was prepared by dissolving the radiolabeled material in citrate buffered vehicle that was prepared by adding 100 ml of water to a 4 oz. amber bottle containing a dry powder blend of citric acid and sodium citrate. Total volume of dosage given was 240 ml.
After dosing, urine samples were collected for up to 16 days between the following time points: 0-12, 12-24, 24-48, 48-72, 72-96, 96-120, 120-144, 144-168, 168-192, 192-216, 216-240, 240-264, 264-288, 288-312, 312-336, 336-360 and 360-384 hours post-dose (i.e., first sample collected between 0-12 hours, second sample collected between 12-24 hours, and so on). The total volume of the urine samples was recorded after each collection. Feces were collected as passed, from time of dosing until 384 hours after dosing.
Blood sufficient to provided a minimum of 7 ml of plasma was collected, in heparinized tubes, from each subject at 0 (just before dosing), 1, 2, 4, 6, 8, 10, 12, 16, 24, 48, 72, 96, 120, 144 and 168 hours after the dose. Within 1 hour after collection, the blood samples were centrifuged in a refrigerated centrifuge and plasma was separated from whole blood. Samples collected over the first 168 hours post-dose were divided into two aliquots (3 ml and 4 ml). The 3 ml aliquots were used for the quantitation of unchanged 3-(4-bromo-2,6-difluoro-benzyloxy)-5-[3-(4-pyrrolidin-1-yl-butyl)-ureido]-isothiazole-4-carboxylic acid amide The other 4 ml aliquots were used for the analysis of total radioactivity. For metabolite identification, blood sufficient to yield 20 ml of plasma was collected at 4, 6, 8, 12, 16 and 24 hours after the dose. All samples were labeled, immediately frozen, and stored at −20° C. until analysis.
Radioactivity in urine, feces, and plasma was measured by liquid scintillation counting. All samples were counted in a Wallac 1409 liquid scintillation counter with quench correction determined by monitoring the Compton edge of the external gamma source. Radioactivity less than twice the background value of the pre-dose matrix was considered to be below the limit of quantification.
Urine samples obtained between the following time points were pooled for each subject: 0-12, 12-24, 24-48, 48-72 hours after the dose (i.e., first sample collected between 0-12 hours, second sample collected between 12-24 hours, and so on). The pooled samples (˜100 ml) were lyophilized overnight. The residues were extracted with methanol twice (10 and 5 ml). The supernatants were combined and 0.2 ml aliquots were counted in a liquid scintillation counter to determine the extraction efficiency. The supernatants were evaporated to dryness in a Turbo Vap LV evaporator. The residues were reconstituted with 1 ml of MeOH. Aliquots (50 μl) were injected onto the HPLC column without further purification.
Fecal homogenates were pooled (up to 0-264 hours) for each subject. The pooled samples (˜10 g) were suspended in 25 ml of acetonitrile. The suspensions were sonicated for 10 min, then stirred on a magnetic stirrer for 1 hour and centrifuged. Supernatants were separated and the residues further extracted with 25 ml of acetonitrile. The two supernatants were combined and 1 ml aliquots were counted in a scintillation counter to determine the extraction efficiency. The organic solvents were evaporated to dryness in a Turbo Vap LV evaporator and the residues were reconstituted in 1 ml of MeOH:water (50:50). Aliquots (100 μl) of concentrated fecal extracts were injected onto the HPLC column. […]

Series [2] is described as follows: Metabolite detection in beagle dogs, methods similar to those used for human samples. It is filed as in vivo. The note with it: dog urine, feces, bile, plasma.
Series [3] in a line: Metabolite detection in Sprague-Dawley rats, methods similar to those used for human samples. It is filed as in vivo. The settings on record: rat urine, feces, bile, plasma.

On to `NC(=O)c1c(OCc2c(F)cc(Br)cc2F)nsc1NC(=O)NCCCCN1CCCC1` [3-(4-Bromo-2,6-difluoro-benzyloxy)-5-[3-(4-pyrrolidin-1-yl-butyl)-ureido]-isothiazole-4-carboxylic acid amide, reference compound], for which, in series [1], the “presence in HPLC-radiochromatogram of human fecal metabolites” value (“presence … of human fecal metabolites” below) is “presence”, the “presence in HPLC-radiochromatogram of circulating metabolites” value (“presence … of circulating metabolites” for short) is recorded as “presence” and the “presence in HPLC-radiochromatogram of human urinary metabolites” value (from here on “presence … of human urinary metabolites”) is “presence”.

As to `NC(=O)c1c(OCc2c(F)cc(Br)cc2F)nsc1NC(=O)NCCCCNCCCC(=O)O` [Metabolite M1, 4-(4-{3-[3-(4-bromo-2,6-difluoro-benzyloxy)-4-carbamoyl-isothiazol-5-yl]-ureido}-butylamino)-butyric acid], in series [1], the “presence … of human fecal metabolites” value was “presence”; the “matrices in which the metabolite was detected (humans)” value (from here on “matrices … (humans)”) was “detected in urine and feces of humans”; the “presence … of human urinary metabolites” value is given as “presence”.

Regarding `NC(=O)c1c(OCc2c(F)cc(Br)cc2F)nsc1NC(=O)NCCCC[N+]1([O-])CCCC1` [Metabolite M2, 3-(4-bromo-2,6-difluoro-benzyloxy)-5-[3-(4-pyrrolidin-1-yl-N-oxide-butyl)-ureido]-isothiazole-4-carboxylic acid amide], in series [1], the “matrices … (humans)” value is “detected in urine of humans” and the “presence … of human urinary metabolites” value is given as “presence”. The “matrices in which the metabolite was detected (beagle dogs)” value (from here on “matrices … (beagle dogs)”) in series [2] was “in urine, feces, bile and plasma of Beagle dogs”.

With `O=C(O)c1c(F)cc(Br)cc1F` [Metabolite M4, 4-bromo-2,6-difluorobenzoic acid], in series [1], the “presence … of circulating metabolites” value was “presence”; the “matrices … (humans)” value was “detected in urine and plasma”; the “presence … of human urinary metabolites” value is “presence”. Moreover, the “matrices in which the metabolite was detected (rats)” value in series [3] was “found in rat urine”.

Take `CC(=O)NC(CSCc1c(F)cc(Br)cc1F)C(=O)O` (stereo not shown) [Metabolite M5, 2-Acetylamino-3-(4-bromo-2,6-difluoro-benzylsulfanyl)-propionic acid]: in series [1], the “matrices … (humans)” value is “detected in urine of humans” and the “presence … of human urinary metabolites” value is recorded as “presence”. Besides, the “matrices … (beagle dogs)” value in series [2] is “detected in urine of humans and beagle dogs”.

On to `NC(=O)c1c(OCc2c(F)cc(Br)cc2F)nsc1NC(=O)NCCCCN1CC=CC1=O` [Metabolite M8, 3-(4-bromo-2,6-difluoro-benzyloxy)-5-{3-[4-(2-oxo-2,5-dihyro-pyrrol-1-yl)-butyl]-ureido}-isothiazole-4-carboxylic acid amide], for which the “matrices … (beagle dogs)” value in series [2] was “detected in feces, bile and plasma of beagle dogs”. Also, the “matrices in which the metabolite was detected (rats)” value in series [3] is “detected in feces, bile and plasma of beagle dogs and Sprague-Dawley Rats”.

In the case of `NC(=O)c1c(OCc2c(F)cc(Br)cc2F)nsc1NC(=O)NCCCC(=O)O` [Metabolite M9, 4-{3-[3-(4-bromo-2,6-difluorobenzyloxy)-4-carbamoyl-isothiazol-5-yl]-ureido}-butyric acid], in series [1], the “presence … of human fecal metabolites” value is recorded as “presence”; the “presence … of circulating metabolites” value is reported as “presence”; the “matrices … (humans)” value was “detected in feces and plasma”. In addition, the “matrices … (beagle dogs)” value in series [2] is reported as “found in dog feces”.
